A short description of data set [1]: differential scanning calorimetry (DSC), thermal stability. As to conditions: thermal decomposition. It is filed as physicochemical. In general terms: DSC measures the heat that a sample takes up or gives off during a temperature scan.
In data set [2] the test system is ANKA strain of P. Berghei. Kind of data set: single dose STI in vivo screen in infected Moro SPF mice. As to conditions: for Activity (%) po / Activity (%) sc: percent reduction in parasitemia day 3 post-infection; for Activity (%) po / Survival (days) po: single 10 mg/kg po; for Activity (%) sc / Survival (days) sc: single 10 mg/kg sc; for antimalarial activity, overall assessment: overall judgement of in vitro and in vivo data of Table 2. The protocol:
In the single dose STI in vivo screen, Moro SPF mice infected with the ANKA strain of P. Berghei (groups of three mice) were treated on day one post-infection with trioxolanes dissolved or suspended in 3% ethanol and 7% Tween 80. […] Antimalarial activity was measured by percent redution in parasitemia on day three post-infection and survival times compared to an untreated control group. Survival to day 30 post-infection is considered to be a cure.

Structures are written as SMILES.

`O=C1CC2CC(C1)CC1(C2)OOC2(O1)C1CC3CC(C1)CC2C3` (stereo not shown) [OZ13, Adamantane-2-spiro-3′-1′,2′,4′-trioxolane-5′-spiro-3″-7″-oxobicyclo[3.3.1]nonane]: in data set [1], the “Tm dec. (° C.)” value stood at 170.1 °C.

For `ON=C1CCC2(CC1)OOC1(O2)C2CC3CC(C2)CC1C3` (stereo not shown) [OZ16, Adamantane-2-spiro-3′-8′-hydroxyimino-1′,2′,4′-trioxaspiro[4.5]decane], the “Tm dec. (° C.)” value in data set [1] is 153.6 °C.

Take `CC1(C)CC(C)(C)CC2(C1)OOC1(O2)C2CC3CC(C2)CC1C3` (stereo not shown) [OZ26, Adamantane-2-spiro-3′-7′,9′-tetramethyl-1′,2′,4′-trioxaspiro[4.5]decane]: the “Tm dec. (° C.)” value in data set [1] is 173.4 °C.

For the compound `CC(C)(C)ON=C1CCC2(CC1)OOC1(O2)C2CC3CC(C2)CC1C3` (stereo not shown) [OZ28, Adamantane-2-spiro-3′-8′-t-butyloxyimino-1′,2′,4′-trioxaspiro[4.5]decane], the “Tm dec. (° C.)” value in data set [1] turned out to be 162.4 °C.

Take `CC1(C)CCC2(CC1)OOC1(O2)C2CC3CC(C2)CC1C3` (stereo not shown) [OZ33, Adamantane-2-spiro-3′-8′,8′-dimethyl-1′,2′,4′-trioxaspiro[4.5]decane]: in data set [1], the “Tm dec. (° C.)” value amounted to 163.1 °C.

`c1ccc(C2(c3ccccc3)CCC3(CC2)OOC2(O3)C3CC4CC(C3)CC2C4)cc1` (stereo not shown) [OZ34, Adamantane-2-spiro-3′-8′,8′-diphenyl-1′,2′,4′-trioxaspiro[4.5]decane]: the “Tm dec. (° C.)” value in data set [1] was found to be 181.4 °C. In addition, in data set [2], the “Activity (%) po” value is recorded as 0/0% and the “Activity (%) sc” value was 0/0%.

For `CC(C)(C)OC(=O)N1CCC2(CC1)OOC1(O2)C2CC3CC(C2)CC1C3` (stereo not shown) [OZ35, Adamantane-2-spiro-3′-8′-t-butoxycarbonyl-1′,2′,4′-trioxa-8′-azaspiro[4.5]decane], the “Tm dec. (° C.)” value in data set [1] was determined as 159.4 °C.

In the case of `CON=C1CC2CC3(CC2C1)OOC1(O3)C2CC3CC(C2)CC1C3` (stereo not drawn) [OZ37, Adamantane-2-spiro-3′-1′,2′,4′-trioxolane-5′-spiro-3″-7″-methoxyimino-cis-bicyclo[3.3.0]octane], the “Tm dec. (° C.)” value in data set [1] stood at 151.2 °C.

For `O=C1c2ccccc2C(=O)N1N=C1CCC2(CC1)OOC1(O2)C2CC3CC(C2)CC1C3` (stereo not shown) [OZ38, Adamantane-2-spiro-3′-8′-(N-phthalimido)imino-1′,2′,4′-trioxaspiro[4.5]decane], the “Tm dec. (° C.)” value in data set [1] worked out at 165.1 °C.

For `CC(C)C1CCC2(CC1)OOC1(O2)C2CC3CC(C2)CC1C3` (stereo not shown) [OZ40, Adamantane-2-spiro-3′-8′-isopropyl-1′,2′,4′-trioxaspiro[4.5]decane], the “Tm dec. (° C.)” value in data set [1] stood at 164.2 °C.

As to `c1ccc(C2(c3ccccc3)OOC3(O2)C2CC4CC(C2)CC3C4)cc1` (stereo not shown) [OZ42, Adamantane-2-spiro-3′-5′,5′-diphenyl-1′,2′,4′-trioxolane], in data set [1], the “Tm dec. (° C.)” value is 159.1 °C.

As to `Fc1ccc(C2(c3ccc(F)cc3)OOC3(O2)C2CC4CC(C2)CC3C4)cc1` (stereo not shown) [OZ44, Adamantane-2-spiro-3′-5′, 5′-bis(4′-fluorophenyl)-1′,2′,4′-trioxolane], the “Tm dec. (° C.)” value in data set [1] was found to be 157.5 °C.

On to `Fc1c(F)c(F)c(C2(c3c(F)c(F)c(F)c(F)c3F)OOC3(O2)C2CC4CC(C2)CC3C4)c(F)c1F` (stereo not shown) [OZ45, Adamantane-2-spiro-3′-5′,5′-bis(2′,3′,4′,5′,6′-pentafluorophenyl)-5′,2′,4′-trioxolane], for which the “Tm dec. (° C.)” value in data set [1] was 133.7 °C.

For the compound `FC(F)(F)c1cccc(C2(c3cccc(C(F)(F)F)c3)OOC3(O2)C2CC4CC(C2)CC3C4)c1` (stereo not shown) [OZ46, Adamantane-2-spiro-3′-5′,5′-bis[3′-(trifluoromethyl)phenyl]-1′,2′,4′-trioxolane], the “Tm dec. (° C.)” value in data set [1] is 161.3 °C.

Turning to `Clc1ccc(C2CCC3(CC2)OOC2(O3)C3CC4CC(C3)CC2C4)cc1` (stereo not shown) [OZ47, Adamantane-2-spiro-3′-8′-(4′-chlorophenyl)-1′,2′,4′-trioxaspiro[4.5]decane], the “Tm dec. (° C.)” value in data set [1] came to 159.3 °C.

On to `FC(F)(F)c1ccc(C2CCC3(CC2)OOC2(O3)C3CC4CC(C3)CC2C4)cc1` (stereo not shown) [OZ48, Adamantane-2-spiro-3′-8′-[4′-(trifluoromethyl)phenyl]-1′,2′,4′-trioxaspiro[4.5]decane], for which, in data set [1], the “Tm dec. (° C.)” value amounted to 156.1 °C.

For the compound `Cc1ccc(S(=O)(=O)N2CCC3(CC2)OOC2(O3)C3CC4CC(C3)CC2C4)cc1` (stereo not shown) [OZ51, Adamantane-2-spiro-3′-8′-(p-toluenesulfonyl)-1′,2′,4′-trioxa-8′-azaspiro[4.5]decane], the “Tm dec. (° C.)” value in data set [1] came to 152.3 °C.

As for `c1ccc(CC2(Cc3ccccc3)OOC3(O2)C2CC4CC(C2)CC3C4)cc1` (stereo not shown) [OZ52, Adamantane-2-spiro-3′-5′,5′-dibenzyl-1′,2′,4′-trioxolane], the “Tm dec. (° C.)” value in data set [1] turned out to be 154.9 °C.

Turning to `CCOC(=O)CCC(=O)N1CCC2(CC1)OOC1(O2)C2CC3CC(C2)CC1C3` (stereo not shown) [OZ53, Adamantane-2-spiro-3′-8′-[3′-(ethoxycarbonyl)propionyl]-1′,2′,4′-trioxa-8′-azaspiro[4.5]decane], the “Tm dec. (° C.)” value in data set [1] was determined as 152.7 °C.

As for `O=C(O)CON=C1CCC2(CC1)OOC1(O2)C2CC3CC(C2)CC1C3` (stereo not shown) [OZ54, Adamantane-2-spiro-3′-8′-carboxymethoxyimino-1′,2′,4′-trioxaspiro[4.5]decane], the “Tm dec. (° C.)” value in data set [1] came to 149.3 °C. Besides, in data set [2], the “Survival (days) po” value is 7.0/7.0 days and the “Survival (days) sc” value is listed as 7.0/7.0 days.

Consider `CS(=O)(=O)N1CCC2(CC1)OOC1(O2)C2CC3CC(C2)CC1C3` (stereo not shown) [OZ56, Adamantane-2-spiro-3′-8′-methanesulfonyl-1′,2′,4′-trioxa-8′-azaspiro[4.5]decane], for which the “Tm dec. (° C.)” value in data set [1] was 158.0 °C.

Turning to `O=S(=O)(c1ccc(Cl)cc1)N1CCC2(CC1)OOC1(O2)C2CC3CC(C2)CC1C3` (stereo not shown) [OZ57, Adamantane-2-spiro-3′-8′-(4′-chlorobenzenesulfonyl)-1′,2′,4′-trioxa-8′-azaspiro[4.5]decane], the “Tm dec. (° C.)” value in data set [1] was found to be 158.0 °C.

Take `O=C(O)CCC(=O)N1CCC2(CC1)OOC1(O2)C2CC3CC(C2)CC1C3` (stereo not shown) [OZ58, Adamantane-2-spiro-3′-8′-(3′-carboxypropionyl)-1′,2′,4′-trioxa-8′-azaspiro[4.5]decane]: the “Tm dec. (° C.)” value in data set [1] is 147.0 °C.

Regarding `COc1ccc(S(=O)(=O)N2CCC3(CC2)OOC2(O3)C3CC4CC(C3)CC2C4)cc1` (stereo not shown) [OZ59, Adamantane-2-spiro-3′-8′-(4′-methoxybenzenesulfonyl)-1′,2′,4′-trioxa-8′-azaspiro[4.5]decane], in data set [1], the “Tm dec. (° C.)” value worked out at 152.2 °C.

As to `O=S(=O)(c1ccccc1)N1CCC2(CC1)OOC1(O2)C2CC3CC(C2)CC1C3` (stereo not shown) [OZ60, Adamantane-2-spiro-3′-8′-benzenesulfonyl-1′, 2′,4′-trioxa-8′-azaspiro[4.5]decane], in data set [1], the “Tm dec. (° C.)” value turned out to be 152.6 °C.

`N#CC1(c2ccccc2)CCC2(CC1)OOC1(O2)C2CC3CC(C2)CC1C3` (stereo not shown) [OZ63, Adamantane-2-spiro-3′-8′-cyano-8′-phenyl-1′,2′,4′-trioxaspiro[4.5]decane]: the “Tm dec. (° C.)” value in data set [1] amounted to 158.3 °C.

For `CC(C)(C)COC(=O)C1CCC2(CC1)OOC1(O2)C2CC3CC(C2)CC1C3` (stereo not shown) [OZ64, Adamantane-2-spiro-3′-8′-neopentyloxycarbonyl-1′,2′,4′-trioxaspiro[4.5]decane], in data set [1], the “Tm dec. (° C.)” value was found to be 163.8 °C.

For `c1ccc(C2CCC3(CC2)OOC2(O3)C3CCCC2CCC3)cc1` (stereo not shown) [OZ67, Bicyclo[3.3.1]nonane-9-spiro-3′-8′-phenyl-1′,2′,4′-trioxaspiro[4.5]decane], the “Tm dec. (° C.)” value in data set [1] amounted to 162.3 °C. Also, in data set [2], the “antimalarial activity, overall assessment” value (“antimalarial activity” below) was “completely inactive”; the “Activity (%) po” value was 0/0%; the “Activity (%) sc” value is reported as 0/0%; the “Survival (days) po” value was 5.0/5.0 days. Also, the “Survival (days) sc” value in data set [2] was 5.0/5.0 days.

With `CC1(C)COC2(CCC3(CC2)OOC2(O3)C3CCCC2CCC3)OC1` (stereo not shown) [OZ68, Bicyclo[3.3.1]nonane-9-spiro-3′-11′,11′-dimethyl-1′,2′,4′,9′,13′-pentaoxadispiro[4.2.5.2]pentadecane], the “Tm dec. (° C.)” value in data set [1] is 163.1 °C. For the same compound, the “antimalarial activity” value in data set [2] was “similarly inactive”.

Take `CC(=O)OC1(c2ccc(F)cc2)CCC2(CC1)OOC1(O2)C2CC3CC(C2)CC1C3` (stereo not shown) [OZ69, Adamantane-2-spiro-3′-8′-acetoxy-8′-(4′-fluorophenyl)-1′,2′,4′-trioxaspiro[4.5]decane]: in data set [1], the “Tm dec. (° C.)” value amounted to 164.1 °C. In data set [2], the “Survival (days) po” value is 6.3/6.3 days and the “Survival (days) sc” value is recorded as 6.3/6.3 days.

Regarding `CCN(CC)C(=O)C1CCC2(CC1)OOC1(O2)C2CC3CC(C2)CC1C3` (stereo not shown) [OZ73, Adamantane-2-spiro-3′-8′-diethylaminocarbonyl-1′,2′,4′-trioxaspiro[4.5] decane], the “Tm dec. (° C.)” value in data set [1] came to 160.2 °C. The “antimalarial activity” value in data set [2] is “only weakly active”.

Regarding `O=C(OC1CCC2(CC1)OOC1(O2)C2CC3CC(C2)CC1C3)c1ccccc1` (stereo not shown) [OZ74, Adamantane-2-spiro-3′-8′-benzoyloxy-1′,2′,4′-trioxaspiro[4.5]decane], the “Tm dec. (° C.)” value in data set [1] is 161.2 °C.

Take `N#CC1(c2ccc(Cl)c(Cl)c2)CCC2(CC1)OOC1(O2)C2CC3CC(C2)CC1C3` (stereo not shown) [OZ75, Adamantane-2-spiro-3′-8′-cyano-8′-(3′,4′-dichlorophenyl)-1′,2′,4′-trioxaspiro[4.5]decane]: the “Tm dec. (° C.)” value in data set [1] is 159.1 °C.

Consider `OC1(c2ccc(F)cc2)CCC2(CC1)OOC1(O2)C2CC3CC(C2)CC1C3` (stereo not shown) [OZ76, Adamantane-2-spiro-3′-8′-(4′-fluorophenyl)-8′-hydroxy-1′,2′,4′-trioxaspiro[4.5]decane], for which, in data set [1], the “Tm dec. (° C.)” value was 149.6 °C.

For `COC1(c2ccc(F)cc2)CCC2(CC1)OOC1(O2)C2CC3CC(C2)CC1C3` (stereo not shown) [OZ77, Adamantane-2-spiro-3′-8′-(4′-fluorophenyl)-8′-methoxy-1′,2′,4′-trioxaspiro[4.5]decane], the “Tm dec. (° C.)” value in data set [1] amounted to 161.3 °C. The “antimalarial activity” value in data set [2] is “excellent activity”.

For the origin of these results see patent US6486199B1, “Spiro and dispiro 1,2,4-trioxolane antimalarials” (Medicines for Malaria Venture MMV International Centre …, priority 2001, dated 2002).
